Measured values taken from US20240166610A1, “SUBSTITUTED PYRIDAZINE PHENOL DERIVATIVES” (MEDSHINE DISCOVERY INC., priority 2021, published 2024).
Structures can show the parent of a compound that is named as a salt.

Key:
NLRP3 = target: T1, NLRP3 (Homo sapiens, UniProt Q96P20); assay: Detecting IC50 of NLRP3 inhibitor by using THP-1 cells (IL-1β secretion, CBA); assay type: cell-based; conditions: PMA/LPS/ATP, IL-1β in supernatant
T1 construct: This experiment utilized the human-derived monocyte cell line THP1; endogenous in cells; host or cells: THP-1 (human monocyte line, PMA-differentiated into macrophages)
Source text: 1. Experimental principle: This experiment utilized the human-derived monocyte cell line THP1 to investigate the inhibitory activity (IC50) of NLRP3 inhibitor on cellular IL-1β secretion. PMA (12-O-tetradecanoylphorbol-13-acetate) was used to differentiate the monocyte cell line THP1 into mature macrophages, which were then stimulated using LPS (lipopolysaccharide), an agonist of the Toll-like receptor TLR4, to activate the transcriptional activity of the inflammasome NLRP3 and the expression of pro-IL-1β, a precursor of IL-1β. At this time, the inhibitor of NLRP3 was added, and then ATP (adenosine triphosphate) was added to further mature and activate NLRP3, and activate downstream caspase-1. Activated caspase-1 may enzymatically process pro-IL-1β into mature IL-1β that can be secreted.
(1) The density of THP1 cells was adjusted to 5×10^5 cells/mL, then PMA was added, and the final concentration was adjusted to 100 ng/mL. The cells were inoculated 200 μL/well into a 96-well flat-bottom plate, stimulated overnight (<16 hours if possible) at 37° C. and 5% CO2.
(2) The supernatant was discarded the next day, and then the cells were carefully washed twice with Dulbecco's phosphate-buffered saline (200 μL/time).
(3) The cells were stimulated with LPS at a final concentration of 100 ng/mL, added to a 96-well plate (200 μL/well), and cultured at 37° C. and 5% CO2 for 3 hours.
The cells were incubated for 1 hour in a 37° C., 5% CO2 incubator.
(5) ATP was added to each well with a final concentration of 5 mM, and cultured overnight (>18 hours) at 37° C. and 5% CO2.
(6) On the third day, 5 μL of the supernatant was taken, diluted 10-fold, and the content of IL-1β in the supernatant was detected by cytometric bead array (CBA).

[1] = In vivo pharmacokinetic evaluation in CD-1 mice; conditions: male, mouse, plasma, dose IV/PO 1/2 mg/kg; for half-life / clearance / Vd: 1 mg/kg; for half-life: IV, read-out: Half-life T1/2 (IV) (converted); for clearance: read-out: Clearance rate CL; for Vd: read-out: Tissue distribution Vdss; for AUC(0-t): PO, read-out: Area under drug-time curve AUC0-last PO; for bioavailability: read-out: Bioavailability F; for Cmax: read-out: Peak concentration Cmax
Method: Experimental Example 2: In Vivo Pharmacokinetic Evaluation of Compounds in CD-1 Mice
Experimental purpose: To test the in vivo pharmacokinetics of the compounds in CD-1 mice
CD-1 mice (male, 7 to 9 weeks old)
The rodent pharmacokinetic characteristics after intravenous injection and oral administration of the compounds were tested using a standard protocol. The candidate compound was prepared as a clear solution during the experiment and given to mice for single intravenous injection and oral administration. The vehicle for intravenous injection and oral administration was a mixed vehicle composed of 5% dimethyl sulfoxide and 95% 5% solutol. Four male CD-1 mice were used in this project. Two mice were administered intravenously (IV), and plasma samples were collected at 0 hours (before administration) and 0.0833, 0.25, 0.5, 1, 2, 4, 8, and 24 hours after administration. The other two mice were administered orally by gavage (PO), and plasma samples were collected at 0 hours (before administration) and 0.25, 0.5, 1, 2, 4, 8, and 24 hours after administration. The plasma concentration was quantitatively analyzed by LC-MS/MS analysis method, and the pharmacokinetic parameters were calculated, such as peak concentration (Cmax), clearance rate (CL), half-life (T1/2), […] (Vdss), area under drug-time curve (AUC0-last), bioavailability (F).

[2] = In vivo pharmacokinetic evaluation in SD rats; conditions: male, rat, plasma, dose IV/PO 1/2 mg/kg; for half-life / clearance / Vd: 1 mg/kg; for half-life: IV, read-out: Half-life T1/2 (IV) (converted); for clearance: read-out: Clearance rate CL; for Vd: read-out: Tissue distribution Vdss; for AUC(0-t): PO, read-out: Area under drug-time curve AUC0-last PO; for bioavailability: read-out: Bioavailability F; for Cmax: read-out: Peak concentration Cmax
Method: Experimental Example 3: In Vivo Pharmacokinetic Evaluation of Compounds in SD Rats
Experimental Purpose: To Test the In Vivo Pharmacokinetics of the Compounds in SD Rats
The rodent pharmacokinetic characteristics after intravenous injection and oral administration of the compounds were tested using a standard protocol. The candidate compound was prepared as a clear solution during the experiment and given to SD rats for single intravenous injection and oral administration. The vehicle for intravenous injection and oral administration was a mixed vehicle composed of 5% dimethyl sulfoxide and 95% 5% solutol. Four male SD rats were used in this project. Two SD rats were administered intravenously, and plasma samples were collected at 0.083, 0.25, 0.5, 1, 2, 4, 8, and 24 hours after administration. The other two SD rats were administered orally by gavage, and plasma samples were collected at 0.25, 0.5, 1, 2, 4, 8, and 24 hours after administration. The plasma concentration was quantitatively analyzed by LC-MS/MS analysis method, and the pharmacokinetic parameters were calculated, such as peak concentration (Cmaz), clearance rate (CL), half-life (T1/2), […] (Vdss), area under drug-time curve (AUC0-last), bioavailability (F).

T1 sequence (Q96P20 whole entry): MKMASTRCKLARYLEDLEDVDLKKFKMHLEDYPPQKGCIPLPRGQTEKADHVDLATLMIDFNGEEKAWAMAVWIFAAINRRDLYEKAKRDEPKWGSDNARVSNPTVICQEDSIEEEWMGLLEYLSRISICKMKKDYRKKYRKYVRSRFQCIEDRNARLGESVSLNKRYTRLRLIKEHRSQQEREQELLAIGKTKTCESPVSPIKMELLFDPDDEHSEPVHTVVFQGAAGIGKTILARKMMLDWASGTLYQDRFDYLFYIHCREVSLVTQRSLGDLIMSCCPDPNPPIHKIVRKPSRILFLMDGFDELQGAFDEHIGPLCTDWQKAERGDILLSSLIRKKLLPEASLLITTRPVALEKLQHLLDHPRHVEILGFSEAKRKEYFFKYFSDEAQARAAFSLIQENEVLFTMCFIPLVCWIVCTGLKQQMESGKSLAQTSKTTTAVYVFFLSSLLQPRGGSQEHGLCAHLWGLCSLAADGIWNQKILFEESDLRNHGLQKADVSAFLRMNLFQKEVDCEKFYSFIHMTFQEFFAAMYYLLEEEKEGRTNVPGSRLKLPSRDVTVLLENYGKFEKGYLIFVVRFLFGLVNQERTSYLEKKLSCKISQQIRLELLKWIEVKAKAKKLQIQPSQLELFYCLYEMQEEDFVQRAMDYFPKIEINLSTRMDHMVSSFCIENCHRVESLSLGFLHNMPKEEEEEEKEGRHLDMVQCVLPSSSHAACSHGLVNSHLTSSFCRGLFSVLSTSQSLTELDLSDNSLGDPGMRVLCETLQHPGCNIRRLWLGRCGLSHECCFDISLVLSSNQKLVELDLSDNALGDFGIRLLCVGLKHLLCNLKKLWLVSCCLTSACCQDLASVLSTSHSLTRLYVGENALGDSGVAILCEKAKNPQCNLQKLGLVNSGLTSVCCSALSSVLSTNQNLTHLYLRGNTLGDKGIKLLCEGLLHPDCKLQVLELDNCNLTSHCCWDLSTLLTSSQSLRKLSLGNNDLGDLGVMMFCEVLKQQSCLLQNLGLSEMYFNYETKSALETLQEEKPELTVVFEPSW

Structure (SMILES) | IC50 (NLRP3) | other results
Cc1cc2c(O)c(-c3nnc(NCCN(C)C)cc3C)ccc2s1 [Hydrochloride of compound 58] | 0.85 nM | –
Cc1cc(Nc2cccnc2)nnc1-c1ccc2sccc2c1O [Hydrochloride of compound 65] | 6.07 nM | –
Cc1cc(N[C@H]2CCCC[C@@H]2O)nnc1-c1ccc2sccc2c1O [Hydrochloride of compound 64] | 21.1 nM | –
Cc1cc(N[C@@H]2CCCN(C)C2)nnc1-c1ccc(-c2ccc(F)cc2)cc1O [Compound 4] | – | half-life [1]: 25.7 h; clearance [1]: 0.795 mL/min/kg; Vd [1]: 1.72 L/kg; AUC(0-t) [1]: 54.3 µM·h; bioavailability [1]: 102%; Cmax [1]: 2900 nM
Cc1cc(N[C@@H]2CCCN(C3COC3)C2)nnc1-c1ccc(C2=CCCC2)cc1O [Compound 27b] | 25.5 nM | –
Cc1cc(N[C@@H]2CCCN(CC(C)(C)O)C2)nnc1-c1ccc2sccc2c1O [Formate of compound 47] | 0.69 nM | –
Cc1cc(N[C@@H]2CCCN(CC3CC3)C2)nnc1-c1ccc2sccc2c1O [Compound 40] | 0.19 nM | –
Cc1cc(N[C@@H]2CCCN(CC(N)=O)C2)nnc1-c1ccc2c(c1O)CCC2 [Compound 12b] | 3.13 nM | –
Cc1cc(N[C@@H]2CCCN(C)C2)nnc1-c1ccc2sc(F)cc2c1O [Hydrochloride of compound 44a] | 0.076 nM | –
Cc1cc(N[C@@H]2CCCN(C3CCOC3)C2)nnc1-c1ccc2sccc2c1O (stereo partly shown) [Formate of compound 42] | 0.274 nM | half-life [2]: 1.72 h; clearance [2]: 6.08 mL/min/kg; Vd [2]: 0.837 L/kg; AUC(0-t) [2]: 9.15 µM·h; bioavailability [2]: 71.2%; Cmax [2]: 2100 nM
COC1CC(N2CCC[C@@H](Nc3cc(C)c(-c4ccc5sccc5c4O)nn3)C2)C1 (stereo partly shown) [Compound 49] | 0.882 nM | –
Cc1c(N[C@@H]2CCCN(C)C2)nnc(-c2ccc3sccc3c2O)c1C [Hydrochloride of compound 72] | 0.318 nM | –
Cc1cc(N[C@@H]2CCCN(C3COC3)C2)nnc1-c1ccc(C2CCC2)cc1O [Compound 25] | 31.1 nM | –
Cc1cc(N[C@@H]2CCCN(C3CCOCC3)C2)nnc1-c1ccc2sccc2c1O [Formate of compound 46] | 0.289 nM | –
Cc1cc(N[C@@H]2CCCN(C(C)C)C2)nnc1-c1ccc2sccc2c1O [Compound 39] | 0.09 nM | half-life [2]: 2.19 h; clearance [2]: 15.3 mL/min/kg; Vd [2]: 2.63 L/kg; AUC(0-t) [2]: 4.53 µM·h; bioavailability [2]: 85.1%; Cmax [2]: 573 nM
Cc1cc(N[C@@H]2CCCN(C3CCOC3)C2)nnc1-c1ccc(C2CC2)cc1O (stereo partly shown) [Compound 30] | 3.39 nM | –

Structure (SMILES) | IC50 (NLRP3) | other results
Cc1cc(N[C@@H]2CCCN(C)C2)nnc1-c1ccc2ccsc2c1O [Formate of compound 45] | 0.078 nM | –
Cc1cc(N[C@@H]2CCCN(C3CCC3)C2)nnc1-c1ccc2c(c1O)CCC2 [Hydrochloride of compound 19] | 0.76 nM | –
Cc1cc2c(O)c(-c3nnc(N[C@H]4COC[C@@H]4O)cc3C)ccc2s1 [Hydrochloride of compound 66] | 8.18 nM | –
Cc1cc(N[C@@H]2CCCN(C)C2)nnc1-c1ccc2sc(F)c(F)c2c1O [Hydrochloride of compound 44b] | 4.19 nM | –
Cc1c(N[C@@H]2CCCC[C@H]2O)nnc(-c2ccc3sccc3c2O)c1C [Hydrochloride of compound 73] | 3.21 nM | –
Cc1cc(N[C@@H]2CCCN(C3COC3)C2)nnc1-c1ccc2ccccc2c1O [Compound 28] | 18.7 nM | –
Cc1cc(N[C@@H]2CCCN(C(=O)C3CC3)C2)nnc1-c1ccc2sccc2c1O [Compound 41] | 6.87 nM | –
Cc1cc2c(O)c(-c3nnc(N[C@@H]4CCCN(C)C4)cc3C)ccc2s1 [Hydrochloride of compound 43] | 1.76 nM | –
Cc1cc2c(O)c(-c3nnc(N[C@@H]4CCCC[C@H]4O)cc3C)ccc2s1 [Hydrochloride of compound 67] | 16.6 nM | –
Cc1cc(NC2CCCN(C3CC(O)C3)C2)nnc1-c1ccc2sccc2c1O (stereo not shown) [Compound 50] | 1.94 nM | –
Cc1cc(N[C@@H]2CCCN(C(=O)CCN(C)C)C2)nnc1-c1ccc2sccc2c1O [Compound 51] | 0.142 nM | –
Cc1cc(N[C@@H]2CCCN(C3COC3)C2)nnc1-c1ccc(C2CCCC2)cc1O [Compound 27a] | 41.5 nM | –
CN1CCC[C@@H](Nc2ccc(-c3ccc4sccc4c3O)nn2)C1 [Hydrochloride of compound 74] | 19.4 nM | –
Cc1cc(N[C@@H]2CCCN(C3CCOCC3)C2)nnc1-c1ccc(C2CC2)cc1O [Compound 31] | 2.09 nM | –
Cc1cc(N[C@@H]2CCCN(C)C2)nnc1-c1ccc2c(c1O)CCC2 [Compound 2] | 0.24 nM | –
Cc1cc(N[C@@H]2CCCN(C3COC3)C2)nnc1-c1ccc2sccc2c1O [Compound 26] | 0.52 nM | half-life [1]: 1.75 h; clearance [1]: 16.6 mL/min/kg; Vd [1]: 1.71 L/kg; AUC(0-t) [1]: 3.9 µM·h; bioavailability [1]: 78.8%; Cmax [1]: 2070 nM; half-life [2]: 1.1 h; clearance [2]: 12.3 mL/min/kg; Vd [2]: 0.789 L/kg; AUC(0-t) [2]: 7.4 µM·h; bioavailability [2]: 108%; Cmax [2]: 2910 nM
